Measurements as given in patent US12281149B2, “Modulators of G-protein coupled receptors” (priority 2021, dated 2025).
*1 amine or outer side, *2 acyl side, *3 side chain or, on linkers, in order; H or OH if unused. Where a SMILES comes first, the peptide text is derived from it. Side-chain parts run from the residue outwards. [ ]: non-standard residue; d: D form. The star is where a group is joined. Isobutyryl(2-(3-CN-5-F-Ph)) = CC(C)(C(=O)*)c1cc(F)cc(C#N)c1; C20 diacid = O=C(O)CCCCCCCCCCCCCCCCCCC(=O)*; γGlu = O=C(O)[C@H](CCC(=O)[*:2])N[*:1]; X51 = COc1cccc(C2(C(=O)*)CCCC2)c1; X59 = COc1ccc(C2(C(=O)*)CCCC2)cc1; β3hA = C[C@H](N)CC(=O)O; AEEA = NCCOCCOCC(=O)O; Aib = CC(C)(N)C(=O)O; βAla = NCCC(=O)O

How the values were obtained:
Assay type in all cases: cell-based
GIP receptor [1] = target: T1, GIP receptor (Homo sapiens, UniProt P48546); assay: HitHunter cAMP assay, GIP receptor; conditions: for EC50: CHO cells stably expressing GIP receptor, cAMP accumulation, 30 min, read-out: EC50 GIP-1R; for Emax: CHO cells, cAMP, normalized to maximum signal from GIP (high) and DMSO (low), read-out: Emax GIP-1R
T1 sequence (P48546 22-466): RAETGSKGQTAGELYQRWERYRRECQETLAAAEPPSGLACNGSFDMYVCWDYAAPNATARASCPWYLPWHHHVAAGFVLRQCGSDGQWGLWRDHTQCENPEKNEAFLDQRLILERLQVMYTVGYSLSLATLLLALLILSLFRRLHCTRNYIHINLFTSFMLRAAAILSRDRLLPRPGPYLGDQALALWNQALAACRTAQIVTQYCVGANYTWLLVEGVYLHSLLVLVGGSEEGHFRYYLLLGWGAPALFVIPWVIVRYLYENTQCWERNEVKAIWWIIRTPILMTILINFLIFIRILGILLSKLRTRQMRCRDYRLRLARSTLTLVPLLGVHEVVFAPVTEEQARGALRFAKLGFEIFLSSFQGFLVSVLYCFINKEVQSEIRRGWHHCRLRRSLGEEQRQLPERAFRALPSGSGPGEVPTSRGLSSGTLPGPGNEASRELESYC

GLP-1 receptor [2] = target: T2, GLP-1 receptor (Homo sapiens, UniProt P43220); assay: HitHunter cAMP assay, GLP-1 receptor; conditions: for EC50: CHO cells stably expressing human GLP-1 receptor, cAMP accumulation, 30 min, read-out: EC50 GLP-1R; for Emax: CHO cells, cAMP, normalized to maximum signal from GLP-1 (high) and DMSO (low), read-out: Emax GLP-1R
GIP receptor [3] = target: T1, GIP receptor; assay: PathHunter β-arrestin assay, GIP receptor; set-up: host or cells: PathHunter CHO-K1 GIPR β-Arrestin Cell Line; conditions: β-arrestin-2 recruitment, PathHunter CHO-K1 GIPR β-Arrestin Cell Line, 90 min at 37° C.; normalized to GIP; read-out: GIPR β Arrestin EC50
GLP-1 receptor [4] = target: T2, GLP-1 receptor; assay: PathHunter β-arrestin assay, GLP-1 receptor; set-up: host or cells: PathHunter CHO-K1 GLP1R β-Arrestin Cell Line; conditions: β-arrestin-2 recruitment, PathHunter CHO-K1 GLP1R β-Arrestin Cell Line, 90 min at 37° C.; normalized to GLP-1; read-out: GLP-1R β Arrestin EC50

T2 sequence (P43220 24-463): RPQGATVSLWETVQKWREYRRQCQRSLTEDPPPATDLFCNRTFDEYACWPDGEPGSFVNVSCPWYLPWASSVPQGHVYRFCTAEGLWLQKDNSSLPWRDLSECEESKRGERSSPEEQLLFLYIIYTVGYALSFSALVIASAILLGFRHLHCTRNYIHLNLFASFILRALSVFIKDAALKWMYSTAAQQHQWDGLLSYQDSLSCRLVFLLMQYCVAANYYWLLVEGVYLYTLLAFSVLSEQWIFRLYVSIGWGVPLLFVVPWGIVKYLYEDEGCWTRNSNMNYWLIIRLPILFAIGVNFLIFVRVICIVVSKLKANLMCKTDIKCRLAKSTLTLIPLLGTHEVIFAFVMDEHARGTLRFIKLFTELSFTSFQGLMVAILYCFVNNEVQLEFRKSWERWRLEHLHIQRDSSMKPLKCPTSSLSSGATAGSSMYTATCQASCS

| SMILES | EC50 (GIP receptor [1]) | Emax (GIP receptor [1]) | EC50 (GLP-1 receptor [2]) | Emax (GLP-1 receptor [2]) | EC50 (GIP receptor [3]) | EC50 (GLP-1 receptor [4]) |
| --- | --- | --- | --- | --- | --- | --- |
| CC[C@H](C)[C@H](NC(=O)[C@H](CC(C)C)NC(=O)[C@H](Cc1c[nH]c2ccccc12)NC(=O)[C@H](CCC(N)=O)NC(=O)[C@@H](NC(=O)[C@H](Cc1ccccc1)NC(=O)[C@H](C)NC(=O)[C@H](CCCCNC(=O)COCCOCCNC(=O)COCCOCCNC(=O)CC[C@H](NC(=O)CCCCCCCCCCCCCCCCCCC(=O)O)C(=O)O)NC(=O)[C@H](CCC(N)=O)NC(=O)[C@H](C)NC(=O)[C@@H](NC(=O)[C@H](CCCCN)NC(=O)[C@H](CC(=O)O)NC(=O)[C@H](CC(C)C)NC(=O)C(C)(C)NC(=O)[C@@H](NC(=O)[C@H](CO)NC(=O)[C@H](Cc1ccc(O)cc1)NC(=O)[C@H](CC(=O)O)NC(=O)[C@H](CO)NC(=O)[C@@H](NC(=O)[C@H](Cc1ccccc1)NC(=O)[C@@H](NC(=O)CNC(=O)[C@H](CCC(=O)O)NC(=O)CCNC(=O)C1(c2ccc(OC)cc2)CCCC1)[C@@H](C)O)[C@@H](C)O)[C@@H](C)CC)[C@@H](C)CC)C(C)C)C(=O)N[C@@H](C)C(=O)NCC(=O)NCC(=O)N1CCC[C@H]1C(=O)N[C@@H](CO)C(=O)N[C@@H](CO)C(=O)NCC(=O)N[C@@H](C)C(=O)N1CCC[C@H]1C(=O)N1CCC[C@H]1C(=O)N1CCC[C@H]1C(=O)N[C@@H](CO)C(N)=O [Compound 208] ({X59-βAla}-EGTFTSDYSI[Aib]LDKIAQK([AEEA-AEEA-γGlu-C20 diacid])AFVQWLIAGGPSSGAPPPS-NH2) | 1 to 10 nM | 109% | 1 to 10 nM | 111% | < 1000 nM | > 1000 nM |
| CC[C@H](C)[C@H](NC(=O)[C@H](CO)NC(=O)[C@H](Cc1ccc(O)cc1)NC(=O)[C@H](CC(=O)O)NC(=O)[C@H](CO)NC(=O)[C@@H](NC(=O)[C@H](Cc1ccccc1)NC(=O)[C@@H](NC(=O)CNC(=O)[C@H](CCC(=O)O)NC(=O)CCNC(=O)[C@]1(c2ccccc2)CNC(=O)C1)[C@@H](C)O)[C@@H](C)O)C(=O)N[C@@H](Cc1ccc(O)cc1)C(=O)N[C@@H](CC(C)C)C(=O)N[C@@H](CC(=O)O)C(=O)N[C@@H](CCCCN)C(=O)N[C@@H](CCC(N)=O)C(=O)N[C@@H](C)C(=O)N[C@@H](C)C(=O)NC(C)(C)C(=O)N[C@@H](CCC(=O)O)C(=O)N[C@@H](Cc1ccccc1)C(=O)N[C@H](C(=O)N[C@@H](CC(N)=O)C(=O)N[C@@H](Cc1c[nH]c2ccccc12)C(=O)N[C@@H](CC(C)C)C(=O)N[C@@H](CC(C)C)C(=O)N[C@@H](C)C(=O)NCC(=O)NCC(=O)N1CCC[C@H]1C(=O)N[C@@H](CO)C(=O)N[C@@H](CO)C(=O)NCC(=O)N[C@@H](C)C(=O)N1CCC[C@H]1C(=O)N1CCC[C@H]1C(=O)N1CCC[C@H]1C(=O)N[C@@H](CO)C(=O)N[C@@H](CCCCNC(=O)COCCOCCNC(=O)COCCOCCNC(=O)CC[C@H](NC(=O)CCCCCCCCCCCCCCCCCCC(=O)O)C(=O)O)C(N)=O)C(C)C (single isomer, unassigned) [Compound 130] | 1 to 10 nM | 106% | 1 to 10 nM | 107% | > 1000 nM | > 1000 nM |
| CC[C@H](C)[C@H](NC(=O)[C@H](CC(C)C)NC(=O)[C@H](Cc1c[nH]c2ccccc12)NC(=O)[C@H](CCC(N)=O)NC(=O)[C@@H](NC(=O)[C@H](Cc1ccccc1)NC(=O)[C@H](C)NC(=O)[C@H](CCCCNC(=O)COCCOCCNC(=O)COCCOCCNC(=O)CC[C@H](NC(=O)CCCCCCCCCCCCCCCCCCC(=O)O)C(=O)O)NC(=O)[C@H](CCC(N)=O)NC(=O)[C@H](C)NC(=O)[C@@H](NC(=O)[C@H](CCCCN)NC(=O)[C@H](CC(=O)O)NC(=O)[C@H](CC(C)C)NC(=O)C(C)(C)NC(=O)[C@@H](NC(=O)[C@H](CO)NC(=O)[C@H](Cc1ccc(O)cc1)NC(=O)[C@H](CC(=O)O)NC(=O)[C@H](CO)NC(=O)[C@@H](NC(=O)[C@H](Cc1ccccc1)NC(=O)[C@@H](NC(=O)CNC(=O)[C@H](CCC(=O)O)NC(=O)C[C@H](C)NC(=O)C(C)(C)c1cc(F)cc(C#N)c1)[C@@H](C)O)[C@@H](C)O)[C@@H](C)CC)[C@@H](C)CC)C(C)C)C(=O)N[C@@H](C)C(=O)NCC(=O)NCC(=O)N1CCC[C@H]1C(=O)N[C@@H](CO)C(=O)N[C@@H](CO)C(=O)NCC(=O)N[C@@H](C)C(=O)N1CCC[C@H]1C(=O)N1CCC[C@H]1C(=O)N1CCC[C@H]1C(=O)N[C@@H](CO)C(N)=O [Compound 222] ({Isobutyryl(2-(3-CN-5-F-Ph))}-[β3hA]EGTFTSDYSI[Aib]LDKIAQK([AEEA-AEEA-γGlu-C20 diacid])AFVQWLIAGGPSSGAPPPS-NH2) | 10 to 100 nM | 101% | 0.1 to 1 nM | 108% | > 1000 nM | > 1000 nM |
| CC[C@H](C)[C@H](NC(=O)[C@H](CO)NC(=O)[C@H](CCCCNC(=O)COCCOCCNC(=O)COCCOCCNC(=O)CC[C@H](NC(=O)CCCCCCCCCCCCCCCCCCC(=O)O)C(=O)O)NC(=O)[C@H](CC(=O)O)NC(=O)[C@H](CO)NC(=O)[C@@H](NC(=O)[C@H](Cc1ccccc1)NC(=O)[C@@H](NC(=O)CNC(=O)[C@H](CCC(=O)O)NC(=O)CCNC(=O)[C@]1(c2ccccc2)CNC(=O)C1)[C@@H](C)O)[C@@H](C)O)C(=O)N[C@@H](Cc1ccc(O)cc1)C(=O)N[C@@H](CC(C)C)C(=O)N[C@@H](CC(=O)O)C(=O)N[C@@H](CCCCN)C(=O)N[C@@H](CCC(N)=O)C(=O)N[C@@H](C)C(=O)N[C@@H](C)C(=O)NC(C)(C)C(=O)N[C@@H](CCC(=O)O)C(=O)N[C@@H](Cc1ccccc1)C(=O)N[C@H](C(=O)N[C@@H](CC(N)=O)C(=O)N[C@@H](Cc1c[nH]c2ccccc12)C(=O)N[C@@H](CC(C)C)C(=O)N[C@@H](CC(C)C)C(=O)N[C@@H](C)C(=O)NCC(=O)NCC(=O)N1CCC[C@H]1C(=O)N[C@@H](CO)C(=O)N[C@@H](CO)C(=O)NCC(=O)N[C@@H](C)C(=O)N1CCC[C@H]1C(=O)N1CCC[C@H]1C(=O)N1CCC[C@H]1C(=O)N[C@@H](CO)C(N)=O)C(C)C (single isomer, unassigned) [Compound 129] | 10 to 100 nM | 106% | 1 to 10 nM | 108% | > 1000 nM | > 1000 nM |
| CC[C@H](C)[C@H](NC(=O)[C@H](CC(C)C)NC(=O)[C@H](Cc1c[nH]c2ccccc12)NC(=O)[C@H](CCC(N)=O)NC(=O)[C@@H](NC(=O)[C@H](Cc1ccccc1)NC(=O)[C@H](C)NC(=O)[C@H](CCCCNC(=O)COCCOCCNC(=O)COCCOCCNC(=O)CC[C@H](NC(=O)CCCCCCCCCCCCCCCCCCC(=O)O)C(=O)O)NC(=O)[C@H](CCC(N)=O)NC(=O)[C@H](C)NC(=O)[C@@H](NC(=O)[C@H](CCCCN)NC(=O)[C@H](CC(=O)O)NC(=O)[C@H](CC(C)C)NC(=O)C(C)(C)NC(=O)[C@@H](NC(=O)[C@H](CO)NC(=O)[C@H](Cc1ccc(O)cc1)NC(=O)[C@H](CC(=O)O)NC(=O)[C@H](CO)NC(=O)[C@@H](NC(=O)[C@H](Cc1ccccc1)NC(=O)[C@@H](NC(=O)CNC(=O)[C@H](CCC(=O)O)NC(=O)CCNC(=O)C1(c2cccc(OC)c2)CCCC1)[C@@H](C)O)[C@@H](C)O)[C@@H](C)CC)[C@@H](C)CC)C(C)C)C(=O)N[C@@H](C)C(=O)NCC(=O)NCC(=O)N1CCC[C@H]1C(=O)N[C@@H](CO)C(=O)N[C@@H](CO)C(=O)NCC(=O)N[C@@H](C)C(=O)N1CCC[C@H]1C(=O)N1CCC[C@H]1C(=O)N1CCC[C@H]1C(=O)N[C@@H](CO)C(N)=O [Compound 207] ({X51-βAla}-EGTFTSDYSI[Aib]LDKIAQK([AEEA-AEEA-γGlu-C20 diacid])AFVQWLIAGGPSSGAPPPS-NH2) | 1 to 10 nM | 109% | 1 to 10 nM | 97% | > 1000 nM | > 1000 nM |
